Data on two compounds can be found in patent US9029553B2, “2-anilino nicotinyl linked 2-amino benzothiazole conjugates and process for the preparation thereof” (Council of Scientific & Industrial Research, priority 2011, dated 2015).

Each structure is given as a SMILES string.

What is called GI50 is the concentration that inhibits growth by half. One may read the inhibition as the relative decrease from the control value, in per cent.

Experiment [1] concerns RPMI-8226. The experiment is described as follows: NCI SRB GI50 screen. It is filed as cell-based. The settings on record: Homo sapiens, Leukemia, 48 hrs exposure, read-out: Growth Inhibition GI50 RPMI-8226. The procedure:
2-Anilino nicotinyl linked 2-amino benzothiazole conjugates of formula 9-12 were tested against fifty nine human cancer cell lines derived from nine cancer types (leukemia, non-small cell lung cancer, colon cancer, CNS cancer, melanoma, ovarian cancer, renal cancer, prostate cancer and breast cancer) as per NCI protocol. For each compound, dose response curves for individual cell lines were measured at a minimum of five concentrations at 10 fold dilutions. A protocol of 48 hrs continuous drug exposure was used, and a sulforhodamine B (SRB) protein assay was used to estimate cell viability or growth.

Experiment [2] concerns HL-60 cells. The experiment can be described thus: Cell cycle analysis (FACS) by flow cytometry. It is filed as cell-based, human. The note with it: 1 μM, up to 24 h. From the text: The damage was more apparent with compound 8 and 6 (90% and 60% DNA damaged, respectively).
Experiment [3] deals with IMR-32. The experiment is described as follows: SRB percentage growth inhibition (NCI protocol). The note with it: Homo sapiens, 48 hrs exposure. It is filed as cell-based. The procedure:
(§1) 2-Anilino nicotinyl linked 2-amino benzothiazoles conjugates of formula 4-8 have been tested against ten and eleven human cancer cell lines for 10 and 1 μM respectively derived from nine cancer types (leukemia, non-small cell lung cancer, colon cancer, CNS cancer, melanoma, ovarian cancer, renal cancer, prostate cancer and breast cancer) as per NCI protocol. For each compound, percentage of growth inhibition was calculated for individual cell lines at a minimum of two concentrations (1 and 10 μM). A protocol of 48 hrs continuous drug exposure was used, and a sulforhodamine B (SRB) protein assay was used to estimate cell viability or growth. The percentage of growth inhibition compared with the control was calculated in table 1 and table 2.

Experiment [4] relates to DU145. The experiment can be described thus: SRB percentage growth inhibition (NCI protocol). The settings on record: Homo sapiens, DU-145, 48 hrs exposure. Format: cell-based. The procedure: as §1
Experiment [5] concerns A549. The experiment is described as follows: SRB percentage growth inhibition (NCI protocol). It is filed as cell-based. The settings on record: Homo sapiens, 48 hrs exposure. The procedure: as §1
In experiment [6] the test system is Sw-620. The experiment can be described thus: SRB percentage growth inhibition (NCI protocol). The note with it: Homo sapiens, 48 hrs exposure. It is filed as cell-based. The procedure:
as §1

For experiment [7], the system named is OVCAR-5. The experiment is described as follows: SRB percentage growth inhibition (NCI protocol). Format: cell-based. The note with it: Homo sapiens, 48 hrs exposure. The procedure:
as §1

For experiment [8], the system named is IGR-OV-1. The experiment can be described thus: SRB percentage growth inhibition (NCI protocol). It is filed as cell-based. The settings on record: Homo sapiens, IGROV-1, 48 hrs exposure. The procedure:
as §1

Experiment [9] has as its system SiHa. The experiment can be described thus: SRB percentage growth inhibition (NCI protocol). Format: cell-based. The settings on record: Homo sapiens, 48 hrs exposure. The procedure: as §1
The subject of experiment [10] is MCF-7. The experiment is described as follows: SRB percentage growth inhibition (NCI protocol). The settings on record: Homo sapiens, MCF7, 48 hrs exposure. It is filed as cell-based. The procedure: as §1
In experiment [11] the test system is 502713. The experiment can be described thus: SRB percentage growth inhibition (NCI protocol). It is filed as cell-based. The note with it: Homo sapiens, 48 hrs exposure. The procedure:
as §1

The test system of experiment [12] is SK-NS-H. The experiment is described as follows: SRB percentage growth inhibition (NCI protocol). It is filed as cell-based. The note with it: Homo sapiens, SK-N-SH, 48 hrs exposure. The procedure: as §1
The test system of experiment [13] is HEP-2. The experiment can be described thus: SRB percentage growth inhibition (NCI protocol). Format: cell-based. The settings on record: Homo sapiens, 48 hrs exposure. The procedure: as §1
In experiment [14] the test system is HCT-15. The experiment is described as follows: SRB percentage growth inhibition (NCI protocol). It is filed as cell-based. The settings on record: Homo sapiens, 10 μM, 48 hrs exposure. The procedure:
as §1

Experiment [15] has as its system PC-3. The experiment is described as follows: SRB percentage growth inhibition (NCI protocol). It is filed as cell-based. The note with it: Homo sapiens, 48 hrs exposure. The procedure:
as §1

With `COc1ccc2nc(NC(=O)c3cccnc3Nc3cc(OC)c(OC)c(OC)c3)sc2c1` [Compound 12, N-3-(6-methoxy-1,3-benzothiazol-2-yl)-2-(3,4,5-trimethoxyanilino) nicotinamide], the GI50 in experiment [1] stood at 9.94 µM.

Regarding `O=C(Nc1nc2ccc([N+](=O)[O-])cc2s1)c1cccnc1Nc1cc(F)c(F)c(F)c1` [Compound 8, N3-(6-nitro-1,3-benzothiazol-2-yl)-2-[(3,4,5-trifluorophenyl)amino]-3-pyridine carboxamide], the “DNA damaged (sub-G0 fraction)” value in experiment [2] is 90%. In addition, the inhibition at 1 µM came out at 48% in [3] (1 μM); 58% in experiment [4] (1 μM); 27% in experiment [5] (1 μM); 29% in experiment [6] (1 μM); 37% in [7] (1 μM); 42% in [8]. Moreover, the inhibition at 1 µM amounted to 46% in experiment [10], 49% in [13] (1 μM) and 41% in experiment [15]. Further, the inhibition at 10 µM in experiment [3] (10 μM) was 72%; in experiment [4] (10 μM), 39%; in experiment [5] (10 μM), 27%; in [6] (10 μM), 70%; in [7] (10 μM), 52%; in experiment [9], 70%. For the same compound, the inhibition at 10 µM in experiment [11] was determined as 80%; in experiment [12] it was 49%; in [13] (10 μM) it was 0%; in [14] it was 62%.
